# According to US20130317095A1, “Use of Artemisine Derivatives and Pharmaceutical Salts Thereof” (Shanghai Institute of Materia Medica, Chinese Academy of …, priority 2011, published 2013):
# pIC50: −log10 of the molar value.
# How the values were obtained:
# [1] = test system: U937 cells; assay: MTT inhibition test, U937 cells; format: cell-based; details: Homo sapiens, U-937, 48 h
# Procedure: (§1) First dissolve SM1044 in triple distilled water, concentration: 1 mg/ml, then choose typical AML cell lines such as Kasumi-1, NB4-R1, HL60 and U937 cells to perform the experiments. Plate 2.5×10^5 cells in dishes, respectively, blank group, control group without SM1044, and groups with SM1044 in various concentrations, and 3 wells for each concentration. Add MTT (5 mg/ml) to each well after incubating for a certain period, and incubate the plate for further 4 h. Centrifuge and aspirate 180 μl supernatant. Add 180 μl DMSO to each well, and place the plate a shaking table for 15 min. Measure the absorbance(A) at 570 nm using a microplate reader, and calculate the half maximal inhibitory concentration (IC50).
# [2] = test system: transplanted tumor with Kasumi-1 cells; assay: Mouse transplanted tumor model, Kasumi-1; format: in vivo; details: mice, Kasumi-1 tumor under the skin, intraperitoneal 0.125 ml per day, 18-35 d
# Procedure: (§2) Developing mouse transplanted tumor models with acute myeloid leukemic cell lines such as Kasumi-1, HL60 and U937 cells, inject 1×10^7 leukemic cells under the skin. When the tumors are 5 mm in diameter, divide the mice into two groups, control group(con) and groups with SM1044 in various concentrations. Mice intraperitoneally infused with 0.125 ml (kasumi-1 and H160 cells) or 0.1 ml (U937 cells) SM1044 per day, while mice in control groups get equivalent saline, for a course of 18-35 d, measuring the tumors everyday.
# [3] = target: T1, AML1-ETO fusion protein (Homo sapiens, UniProt Q01196+Q06455); assay: Western blot of AML1-ETO fusion protein in Kasumi-1 cells; format: cell-based; details: Kasumi-1, 1 μM/L, 24 hours
# T1 construct: Extracting whole protein of the cells; endogenous in cells; host or cells: Kasumi-1 cells
# T1 sequence (Q01196+Q06455 fused): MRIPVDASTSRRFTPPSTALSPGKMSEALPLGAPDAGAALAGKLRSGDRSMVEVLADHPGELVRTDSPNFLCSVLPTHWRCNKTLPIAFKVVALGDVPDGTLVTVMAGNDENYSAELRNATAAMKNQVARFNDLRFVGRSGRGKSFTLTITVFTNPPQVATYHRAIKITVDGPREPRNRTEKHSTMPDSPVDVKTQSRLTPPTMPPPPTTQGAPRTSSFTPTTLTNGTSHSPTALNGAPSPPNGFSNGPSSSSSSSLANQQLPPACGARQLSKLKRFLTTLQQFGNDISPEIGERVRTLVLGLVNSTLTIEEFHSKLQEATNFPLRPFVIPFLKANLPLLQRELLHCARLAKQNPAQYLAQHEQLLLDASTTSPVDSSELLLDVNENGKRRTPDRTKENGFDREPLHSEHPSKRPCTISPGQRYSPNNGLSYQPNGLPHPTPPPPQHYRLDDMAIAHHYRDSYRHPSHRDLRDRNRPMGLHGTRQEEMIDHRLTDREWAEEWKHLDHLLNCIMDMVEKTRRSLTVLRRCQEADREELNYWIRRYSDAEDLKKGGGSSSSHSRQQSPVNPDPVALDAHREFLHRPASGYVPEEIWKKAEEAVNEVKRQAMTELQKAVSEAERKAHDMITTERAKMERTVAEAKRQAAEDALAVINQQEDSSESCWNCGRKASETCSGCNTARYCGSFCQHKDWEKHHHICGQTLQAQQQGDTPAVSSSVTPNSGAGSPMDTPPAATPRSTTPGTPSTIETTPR
# Procedure: (§3) Plate 1×10^7 Kasumi-1 cells with 20 mL medium in dish. Setting control group (0 μM) and groups with SM1044 in various concentrations, and incubating for 24 hours. Extract the whole RNA, and detect the variation of fusion gene at the mRNA level by RT-PCR (FIG. 5A). […] Plate 5×10^5 Kasumi-1 cells in a dish. Setting control group (0 μM) and groups with SM1044 in various concentrations, and incubating for 24 hours. Extracting whole protein of the cells, detect the variation of AML1-ETO fusion protein by ETO antibody through western blot (FIG. 5B). […] It can be concluded that SM1044 doesn't effect the transcription of AML1-ETO fusion gene, but can induce the degradation of the fusion protein. As the typical fusion gene of AML-M2b, AML1-ETO fusion protein plays an important role in the occurrence of leukemia, which can be a target for medical treatments.
# [4] = test system: AML1-ETO fusion gene; assay: RT-PCR of AML1-ETO fusion gene mRNA in Kasumi-1 cells; format: cell-based; details: Kasumi-1, 24 hours
# Procedure: as §3
# [5] = test system: transplanted tumor with U937 cells; assay: Mouse transplanted tumor model, U937; format: in vivo; details: mice, U937 tumor under the skin, intraperitoneal 0.1 ml per day, 18-35 d
# Procedure: as §2
# [6] = test system: HL-60 cells; assay: Loss of mitochondrial membrane potential, DiOC6(3) flow cytometry, HL-60; format: cell-based
# Procedure: (§4) Respectively plate 3×10^5˜5×10^5 cells/ml of Kasumi-1, NB4-R1, HL60 and U937cells in dishes. Setting control group (0 μM) and groups with SM1044 in various concentrations, incubate for 24 h and 48 h. Add 20 nM DiOC6(3) and incubate for 15 min at 37° C. in the dark. Wash cells with PBS twice, and resuspend the cells in 100 μLPBS, analyzing by flow cytometry. The cells which are DiOC6(3) negative are those that lose mitochondrial membrane potential. […] There are at least two broad pathways that lead to Apoptosis, an “Extrinsic” and an “Intrinsic” Pathway, and the loss of mitochondrial membrane potential is very closely related to intrinsic pathway.
# [7] = test system: NB4-R1 cells; assay: Annexin V-FITC/PI flow cytometry apoptosis, NB4-R1; format: cell-based; details: NB4-R1, 24-48 hours, various concentrations
# Procedure: (§5) Respectively plate 3×10^5˜5×10^5 cells/m1 of Kasumi-1, NB4-R1, HL60 and U937cells in dishes. Setting control group (0 μM) and groups with SM1044 in various concentrations, incubate for 24 h and 48 h. Harvest cells and wash cells with pre-cooling phosphate buffer twice. Resuspend the cells in 200 μL binding buffer, and add 5 μL Annexin V-FITC and 5 μL propidium iodide (PI), gently mixing, incubating for 15 min at room temperature in the dark, analyzing by flow cytometry in 1 hour.
# [8] = test system: Kasumi-1 cells; assay: MTT inhibition test, Kasumi-1 cells; format: cell-based; details: Homo sapiens, 48 h
# Procedure: as §1
# [9] = test system: caspase-3, caspase-8 and/or caspase-9 in U937 cells; assay: Western blot of apoptosis-related proteins, U937; format: cell-based; details: U937, 24 hours
# Procedure: (§6) Respectively plate 3×10^5˜5×10^5 cells/ml of NB4-R1, HL60 and U937 cells in dishes. Setting control group (0 μM) and groups with SM1044 in various concentrations, and incubating for 24 hours. Extracting whole protein of the cells, detect the quantitive variation of […] related proteins (PARP, caspase-3, caspase-8, caspase-9) by antibodies through western blot. Caspase family plays an important role in mediating apoptosis. There are at least two broad pathways that lead to Apoptosis. One is extracellular signals activating intracellular caspase-8, etc, the other is mitochondria-derived activators of caspases activating caspase-9, etc. Therefore the activaigted caspases activate apoptotic excutants—caspase3 to induce apoptosis, and PARP is the substrate of caspase-3.
# [10] = test system: caspase-3, caspase-8 and/or caspase-9 in NB4-R1 cells; assay: Western blot of apoptosis-related proteins, NB4-R1; format: cell-based; details: NB4-R1, 24 hours
# Procedure: as §6
# [11] = test system: U937 cells; assay: Annexin V-FITC/PI flow cytometry apoptosis, U937; format: cell-based; details: U937, 24-48 hours, various concentrations
# Procedure: as §5
# [12] = test system: transplanted tumor with HL60 cells; assay: Mouse transplanted tumor model, HL60; format: in vivo; details: mice, HL60 tumor under the skin, intraperitoneal 0.125 ml per day, 18-35 d
# Procedure: as §2
# [13] = test system: HL60 cells; assay: Cell cycle analysis, PI flow cytometry, HL60; format: cell-based; details: for cells in G0/G1 phase / cells in G2/M phase / cells in S phase: 12 hours
# Procedure: (§7) Plate 5×10^5/mL Kasumi-1 cells and HL60 cells respectively in dishes. Setting control group (0 μM) and groups with SM1044 in various concentrations, and incubating for 24 hours (kasumi-1 cells) or 12 hours (HL60 cells). Harvest the cells, wash cells with PBS twice, and add 70% ice cold ethanol overnight to fix the cells. Wash cells with PBS, and resuspend the cells in PBS with 10 mg/ml RNase, incubating at 37° C. for 30 min. Add 50 μg/ml propidium iodide (PI), analyzing the distribution of DNA contents by flow cytometry in 1 hour.
# [14] = test system: oncogene c-myc; assay: Western blot of c-myc expression in HL60 cells; format: cell-based; details: HL60, above 1 μM/L, 24 hours
# Procedure: Plate 3×10^5/mL HL60 cells in dishes. Setting control group (0 μM) and groups with SM1044 in various concentrations, and incubating for 24 hours. Extracting whole protein of the cells, detect the variation of expression of oncogene c-myc by c-myc antibody through western blot. Over-expression of oncogene c-myc is a character of HL60 cells.
# [15] = test system: Kasumi-1 cells; assay: Loss of mitochondrial membrane potential, DiOC6(3) flow cytometry, Kasumi-1; format: cell-based
# Procedure: as §4
# [16] = test system: caspase-3, caspase-8 and/or caspase-9 in HL60 cells; assay: Western blot of apoptosis-related proteins, HL60; format: cell-based; details: HL60, 24 hours
# Procedure: as §6
# [17] = test system: Kasumi-1 cells; assay: Annexin V-FITC/PI flow cytometry apoptosis, Kasumi-1; format: cell-based; details: Kasumi-1, 24-48 hours, various concentrations
# Procedure: as §5
# [18] = test system: HL60 cells; assay: MTT inhibition test, HL60 cells; format: cell-based; details: Homo sapiens, HL-60, 48 h
# Procedure: as §1
# [19] = test system: NB4-R1 cells; assay: MTT inhibition test, NB4-R1 cells; format: cell-based; details: 48 h
# Procedure: as §1
# [20] = test system: U937 cells; assay: Loss of mitochondrial membrane potential, DiOC6(3) flow cytometry, U937; format: cell-based
# Procedure: as §4
# [21] = test system: NB4-R1 cells; assay: Loss of mitochondrial membrane potential, DiOC6(3) flow cytometry, NB4-R1; format: cell-based
# Procedure: as §4
# [22] = test system: HL60 cells; assay: Annexin V-FITC/PI flow cytometry apoptosis, HL60; format: cell-based; details: HL60, 24-48 hours, various concentrations
# Procedure: as §5
# [23] = test system: Kasumi-1 cells; assay: Cell cycle analysis, PI flow cytometry, Kasumi-1; format: cell-based; details: for cells in G0/G1 phase / cells in G2/M phase / cells in S phase: 24 hours
# Procedure: as §7
compound,measurement,setting,value
"C[C@H]1[C@@H](OCCNCCO[C@H]2O[C@@H]3O[C@@]4(C)CC[C@H]5[C@H](C)CC[C@@H]([C@H]2C)[C@@]35OO4)O[C@@H]2O[C@@]3(C)CC[C@H]4[C@H](C)CC[C@@H]1[C@@]24OO3.O=C(O)/C=C\C(=O)O [SM1044, diarteethe amine maleate]",pIC50,[1],7.70
same,tumor size compared with control group,[2],obviously little than controls
same,degradation of AML1-ETO fusion protein,[3],can induce the degradation of AML1-ETO fusion protein
same,variation of AML1-ETO fusion gene at the mRNA level,[4],no effect on the transcription of fusion gene
same,tumor size compared with control group,[5],obviously little than controls
same,percentage of DiOC6(3) negative HL-60 cells,"[6]; 0.1 μM, 24 h",23.8%
same,percentage of DiOC6(3) negative HL-60 cells,"[6]; 0.1 μM, 48 h",61.7%
same,percentage of DiOC6(3) negative HL-60 cells,"[6]; 1 μM, 24 h",25.6%
same,percentage of DiOC6(3) negative HL-60 cells,"[6]; 1 μM, 48 h",77.1%
same,percentage of DiOC6(3) negative HL-60 cells,"[6]; 5 μM, 24 h",48.5%
same,percentage of DiOC6(3) negative HL-60 cells,"[6]; 5 μM, 48 h",81.1%
same,apoptosis induction,[7],can induce apoptosis
same,pIC50,[8],6.77
same,"activated apoptosis-related proteins (caspase-3, caspase-8 and/or caspase-9)",[9],increase
same,"activated apoptosis-related proteins (caspase-3, caspase-8 and/or caspase-9)",[10],increase
same,apoptosis induction,[11],can induce apoptosis
same,tumor size compared with control group,[12],obviously little than controls
same,cells in G0/G1 phase,"[13]; HL60, 0.1 μM",41.60%
same,cells in G2/M phase,"[13]; HL60, 0.1 μM",3.80%
same,cells in S phase,"[13]; HL60, 0.1 μM",54.61%
same,cells in G0/G1 phase,"[13]; HL60, 1 μM",44.12%
same,cells in G2/M phase,"[13]; HL60, 1 μM",8.00%
same,cells in S phase,"[13]; HL60, 1 μM",47.88%
same,cells in G0/G1 phase,"[13]; HL60, 5 μM",54.48%
same,cells in G2/M phase,"[13]; HL60, 5 μM",8.00%
same,cells in S phase,"[13]; HL60, 5 μM",37.52%
same,cell cycle block,"[13]; HL60, 12 hours",blocked in G0/G1 phase
same,expression of oncogene c-myc,[14],completely inhibit
same,percentage of DiOC6(3) negtive Kasumi-1 cells,"[15]; 0.1 μM, 24 h",24.1%
same,percentage of DiOC6(3) negtive Kasumi-1 cells,"[15]; 0.1 μM, 48 h",44.9%
same,percentage of DiOC6(3) negtive Kasumi-1 cells,"[15]; 1 μM, 24 h",33.8%
same,percentage of DiOC6(3) negtive Kasumi-1 cells,"[15]; 1 μM, 48 h",47.1%
same,percentage of DiOC6(3) negtive Kasumi-1 cells,"[15]; 5 μM, 24 h",63.2%
same,percentage of DiOC6(3) negtive Kasumi-1 cells,"[15]; 5 μM, 48 h",79.2%
same,"activated apoptosis-related proteins (caspase-3, caspase-8 and/or caspase-9)",[16],increase
same,apoptosis induction,[17],can induce apoptosis
same,pIC50,[18],7.40
same,pIC50,[19],7.68
same,percentage of DiOC6(3) negative U937 cells,"[20]; 0.1 μM, 24 h",4.3%
same,percentage of DiOC6(3) negative U937 cells,"[20]; 0.1 μM, 48 h",5.9%
same,percentage of DiOC6(3) negative U937 cells,"[20]; 1 μM, 24 h",5.2%
same,percentage of DiOC6(3) negative U937 cells,"[20]; 1 μM, 48 h",5.6%
same,percentage of DiOC6(3) negative U937 cells,"[20]; 5 μM, 24 h",9.4%
same,percentage of DiOC6(3) negative U937 cells,"[20]; 5 μM, 48 h",16.2%
same,percentage of DiOC6(3) negative NB4-R1 cells,"[21]; 0.1 μM, 24 h",13.9%
same,percentage of DiOC6(3) negative NB4-R1 cells,"[21]; 0.1 μM, 48 h",16.3%
same,percentage of DiOC6(3) negative NB4-R1 cells,"[21]; 1 μM, 24 h",17.1%
same,percentage of DiOC6(3) negative NB4-R1 cells,"[21]; 1 μM, 48 h",33.0%
same,percentage of DiOC6(3) negative NB4-R1 cells,"[21]; 5 μM, 24 h",15.0%
same,percentage of DiOC6(3) negative NB4-R1 cells,"[21]; 5 μM, 48 h",30.0%
same,apoptosis induction,[22],can induce apoptosis
same,cells in G0/G1 phase,"[23]; Kasumi-1, 0.1 μM",59.62%
same,cells in G2/M phase,"[23]; Kasumi-1, 0.1 μM",6.01%
same,cells in S phase,"[23]; Kasumi-1, 0.1 μM",34.37%
same,cells in G0/G1 phase,"[23]; Kasumi-1, 1 μM",71.75%
same,cells in G2/M phase,"[23]; Kasumi-1, 1 μM",6.70%
same,cells in S phase,"[23]; Kasumi-1, 1 μM",21.75%
same,cells in G0/G1 phase,"[23]; Kasumi-1, 5 μM",71.07%
same,cells in G2/M phase,"[23]; Kasumi-1, 5 μM",6.00%
same,cells in S phase,"[23]; Kasumi-1, 5 μM",21.92%
same,cell cycle block,"[23]; Kasumi-1, 24 hours",blocked in G0/G1 phase
